Reference: article PMC9103439, “Cyclo(His-Pro) Exerts Protective Carbonyl Quenching Effects through Its Open Histidine Containing Dipeptides” (Nutrients, 2022)
Where a name gives a salt, the structure may show the parent alone.

What was measured:
[1] = Quenching activity towards HNE (residual HNE by HPLC-UV); details: for HNE Quenching (%) 1 h: percentage of quenched HNE at 1 h; for HNE Quenching (%) 2 h: percentage of quenched HNE at 2 h; for HNE Quenching (%) 3 h: percentage of quenched HNE at 3 h
Protocol: The reactivity towards HNE was tested for each peptide separately, by monitoring within 3 h from the incubation the residual HNE via HPLC-UV, as previously reported. Minor modifications of the method were implemented. A Kinetex C18 column (25 mm × 2.10 mm, particle size 2.6 µm, pore size 100 Å, Phenomenex, Castel Maggiore, Italy) was used instead and the elution of residual HNE was provided at 40 °C by 300 µL/min flow rate of aqueous ammonium acetate (10 mM) containing 20% acetonitrile. For active compounds, the formation of HNE adduct was confirmed by mass spectrometry. Samples were diluted in ACN/H2O/formic acid, 50/50/0.1, v/v/v solution down to a suitable concentration and pumped at 5 µL/min directly into ESI capillary (Finnigan Ion Max, Thermo Fisher Scientific, Rodano, Italy) and 3.5 kV voltage, 270 °C capillary temperature, 35 V capillary voltage and 50 V tube lens were applied to ensure sample nebulization. Spectra were acquired in positive ion mode for 5 × 10^5 ions per scan, by using a LTQ-Orbitrap XL-ETD analyzer (Thermo Fisher Scientific, Rodano, Italy) operating in a 150–700 m/z scan range at a resolution of (FWHM at m/z 400).

[2] = Serum stability (LC-MS, MRM); type: in vitro ADME, human; details: 37 °C; for half-life at 5 µM: human, read-out: Serum Stability t1/2
Protocol: (§1) Serum stability was measured as previously described. Briefly, analytes were spiked separately in pre-heated (37 °C) serum aliquots down to a final concentration of 5 µM. The residual concentration of analyte was measured at the beginning and after 5, 15, 30, 60 and 120 min by means of LC-MS. Prior to analyses, hydrolysis was blocked at the desired time points diluting with 9 volumes of acetonitrile at 4 °C to provide protein precipitation. The analyte residual concentration was then measured in the supernatants obtained upon centrifugation. The same method was also used to evaluate the inhibition effect of CHP by incubating serum samples with equimolar amounts of carnosine and CHP.

[3] = target: T1, human serum carnosinase (hCN1) (Homo sapiens, UniProt Q96KN2); experiment: Inhibition effect of CHP on serum carnosinase (carnosine hydrolysis in serum); type: biochemical; details: serum incubated with equimolar carnosine and CHP; decrease not statistically significant
T1 construct: from tissue; host or cells: serum
T1 sequence (Q96KN2 26-507): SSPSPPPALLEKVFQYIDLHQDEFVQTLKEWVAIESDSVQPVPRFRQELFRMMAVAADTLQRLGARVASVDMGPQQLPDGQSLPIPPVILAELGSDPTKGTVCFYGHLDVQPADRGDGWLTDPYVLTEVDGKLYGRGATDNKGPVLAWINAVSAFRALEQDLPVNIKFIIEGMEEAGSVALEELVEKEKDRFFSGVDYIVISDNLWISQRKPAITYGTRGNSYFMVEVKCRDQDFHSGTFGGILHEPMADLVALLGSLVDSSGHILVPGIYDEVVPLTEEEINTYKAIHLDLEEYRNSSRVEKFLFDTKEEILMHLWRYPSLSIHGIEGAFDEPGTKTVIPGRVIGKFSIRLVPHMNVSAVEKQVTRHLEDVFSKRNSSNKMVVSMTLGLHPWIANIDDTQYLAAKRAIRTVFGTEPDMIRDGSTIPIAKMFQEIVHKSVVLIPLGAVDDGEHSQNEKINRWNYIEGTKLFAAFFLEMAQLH
Protocol: as §1

[4] = design: method as in PMID 1424308; details: cited from earlier work

Row | Serum Stability t1/2 (min) ([2]; 5 µM) | retained carnosine hydrolytic activity [3] [%] | half-life at 5 µM [2] [min] | Structure (SMILES) | HNE Quenching (%) 1 h [1] [%] | HNE Quenching (%) 2 h [1] [%] | HNE Quenching (%) 3 h [1] [%] | half-life in vivo [4] [min]
1 | Stable | 85 ± 5 |  | O=C1NC(Cc2cnc[nH]2)C(=O)N2CCCC12 (centres unmarked) [CHP, Cyclo(His-Pro)] | 2.42 ± 0.71 | 5.46 ± 0.78 | 8.09 ± 0.77 | 
2 |  |  | 3.08 | NC(Cc1cnc[nH]1)C(=O)N1CCCC1C(=O)O (centres unmarked) [HisPro, His-Pro] | −0.33 ± 0.45 | −0.26 ± 0.53 | 3.54 ± 1.66 | 
3 |  |  | 1.17 | NCCC(=O)N[C@@H](Cc1cnc[nH]1)C(=O)O [L-carnosine, reference compound] | 17.04 ± 6.17 | 29.05 ± 4.33 | 40.40 ±3.73 | 
4 |  |  | 33.4 | O=C(O)C(Cc1c[nH]cn1)NC(=O)C1CCCN1 [ProHis, L-Pro-L-His-OH dihydrochloride] | 20.39 ± 1.14 | 36.94 ± 0.80 | 49.87 ± 1.06 | 
5 |  |  | 128 | NC(=O)C(Cc1c[nH]cn1)NC(=O)C1CCCN1 [ProHis-NH2, L-Pro-L-His-NH2] | 17.08 ± 1.11 | 27.66 ± 0.58 | 36.29 ± 1.08 | 
6 |  |  | 24.4 | NC(=O)[C@@H]1CCCN1C(=O)[C@H](Cc1cnc[nH]1)NC(=O)[C@@H]1CCC(=O)N1 [TRH, thyrotropin-releasing hormone, reference compound] | 2.31 ± 6.72 | 4.16 ± 6.16 | 6.17 ± 6.41 | 6.5
